Data taken from the supplement of paper PMC11451515.

System: NOMO1
Test: cell viability relative to DMSO control; higher = less cytotoxic
Details: 48 h
In short: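 In 1536-well plates, 5 μl of leukemia cells were seeded per well: 500 cells/well for NOMO1 or SEM and 1000 cells/well for P12-Ichikawa. Each line had first been adapted for at least four passages in each medium. Library compounds in DMSO were pin-dosed at 11 threefold concentrations between 47 μM and 0.79 nM, and CellTiter-Glo One luminescence was read after 48 h at 37°C. Viability is a per-plate percentage relative to DMSO wells, with cell-free wells as background.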

[1] = HPLM + 10% dialyzed FBS, 0.000781 µM
[2] = HPLM + 10% dialyzed FBS, 0.00234 µM
[3] = HPLM + 10% dialyzed FBS, 0.00702 µM
[4] = HPLM + 10% dialyzed FBS, 0.0211 µM
[5] = HPLM + 10% dialyzed FBS, 0.0632 µM
[6] = HPLM + 10% dialyzed FBS, 0.19 µM
[7] = HPLM + 10% dialyzed FBS, 0.569 µM
[8] = HPLM + 10% dialyzed FBS, 1.71 µM
[9] = HPLM + 10% dialyzed FBS, 5.12 µM
[10] = HPLM + 10% dialyzed FBS, 15.4 µM
[11] = HPLM + 10% dialyzed FBS, 46.1 µM
[12] = RPMI 5 mM glucose + 10% FBS, 0.000781 µM
[13] = RPMI 5 mM glucose + 10% FBS, 0.00234 µM
[14] = RPMI 5 mM glucose + 10% FBS, 0.00702 µM
[15] = RPMI 5 mM glucose + 10% FBS, 0.0211 µM
[16] = RPMI 5 mM glucose + 10% FBS, 0.0632 µM
[17] = RPMI 5 mM glucose + 10% FBS, 0.19 µM
[18] = RPMI 5 mM glucose + 10% FBS, 0.569 µM
[19] = RPMI 5 mM glucose + 10% FBS, 1.71 µM
[20] = RPMI 5 mM glucose + 10% FBS, 5.12 µM
[21] = RPMI 5 mM glucose + 10% FBS, 15.4 µM
[22] = RPMI 5 mM glucose + 10% FBS, 46.1 µM
[23] = RPMI 5 mM glucose + 10% dialyzed FBS, 0.000781 µM
[24] = RPMI 5 mM glucose + 10% dialyzed FBS, 0.00234 µM
[25] = RPMI 5 mM glucose + 10% dialyzed FBS, 0.00702 µM
[26] = RPMI 5 mM glucose + 10% dialyzed FBS, 0.0211 µM
[27] = RPMI 5 mM glucose + 10% dialyzed FBS, 0.0632 µM
[28] = RPMI 5 mM glucose + 10% dialyzed FBS, 0.19 µM
[29] = RPMI 5 mM glucose + 10% dialyzed FBS, 0.569 µM
[30] = RPMI 5 mM glucose + 10% dialyzed FBS, 1.71 µM
[31] = RPMI 5 mM glucose + 10% dialyzed FBS, 5.12 µM
[32] = RPMI 5 mM glucose + 10% dialyzed FBS, 15.4 µM
[33] = RPMI 5 mM glucose + 10% dialyzed FBS, 46.1 µM

| Structure (SMILES) | cell viability [1] [%] | cell viability [2] [%] | cell viability [3] [%] | cell viability [4] [%] | cell viability [5] [%] | cell viability [6] [%] | cell viability [7] [%] | cell viability [8] [%] | cell viability [9] [%] | cell viability [10] [%] | cell viability [11] [%] | cell viability [12] [%] | cell viability [13] [%] | cell viability [14] [%] | cell viability [15] [%] | cell viability [16] [%] | cell viability [17] [%] | cell viability [18] [%] | cell viability [19] [%] | cell viability [20] [%] | cell viability [21] [%] | cell viability [22] [%] | cell viability [23] [%] | cell viability [24] [%] | cell viability [25] [%] | cell viability [26] [%] | cell viability [27] [%] | cell viability [28] [%] | cell viability [29] [%] | cell viability [30] [%] | cell viability [31] [%] | cell viability [32] [%] | cell viability [33] [%] |
| --- | --- | --- | --- | --- | --- | --- | --- | --- | --- | --- | --- | --- | --- | --- | --- | --- | --- | --- | --- | --- | --- | --- | --- | --- | --- | --- | --- | --- | --- | --- | --- | --- | --- |
| CN[C@@H]1C[C@H]2O[C@@](C)([C@@H]1OC)n1c3ccccc3c3c4c(c5c6ccccc6n2c5c31)C(=O)N[C@H]4O | 81.2 | 101 | 93.1 | 78.2 | 96.8 | 56.4 | 48.8 | 35.4 | 22.7 | 18 | 3.31 | 76.2 | 87.6 | 81.4 | 82.7 | 84.6 | 69.4 | 64.7 | 19.6 | 14.8 | 12.7 | 3.97 | 79.9 | 84.5 | 85.9 | 90.5 | 95.9 | 85.5 | 65.5 | 31.6 | 16.9 | 14.7 | 3.79 |
| O=C(CCc1ccc(O)cc1)c1c(O)cc(O)cc1O[C@@H]1O[C@H](CO)[C@@H](O)[C@H](O)[C@H]1O | – | – | – | – | – | – | – | – | – | – | – | 82.5 | 80.8 | 81.7 | 77 | 92.1 | 86.1 | 82.4 | 78.1 | 85.4 | 75.1 | 84.8 | 104 | 96 | 115 | 105 | 115 | 106 | 50.2 | 73.1 | 85.1 | 53.1 | 81.2 |
| NC(=O)Nc1cc(-c2ccc(CN3CCOCC3)cc2)sc1C(N)=O | 122 | 112 | 121 | 132 | 113 | 68.3 | 71.7 | 91.5 | 84.6 | 74.9 | 48.4 | 100 | 113 | 126 | 101 | 97.6 | 50 | 50.8 | 45.9 | 52.1 | 58.5 | 49.6 | 107 | 99.3 | 108 | 108 | 101 | 55.5 | 46.2 | 47.8 | 56 | 58.3 | 37.2 |
| Nc1nc(OCc2ccccc2)c2nc[nH]c2n1 | – | – | – | – | – | – | – | – | – | – | – | 95.7 | 117 | 103 | 109 | 113 | 101 | 133 | 107 | 108 | 108 | 115 | 110 | 119 | 123 | 118 | 128 | 125 | 122 | 110 | 116 | 129 | 123 |
| COc1cccc2c1C(=O)c1c(O)c3c(c(O)c1C2=O)C[C@@](O)(C(C)=O)C[C@@H]3O[C@H]1C[C@H](N)[C@H](O)[C@H](C)O1 | 98.6 | 107 | 108 | 114 | 111 | 81.5 | 12.4 | 7.35 | 5.97 | 5.19 | 4.98 | 99 | 104 | 106 | 99.2 | 108 | 78.6 | 9.07 | 4.79 | 4.48 | 5.23 | 3.6 | 91.6 | 113 | 107 | 115 | 108 | 73.4 | 9.73 | 6.25 | 4.58 | 4.86 | 4.92 |
| CC(C)(C)NC(=O)[C@@H]1CN(Cc2cccnc2)CCN1C[C@@H](O)C[C@@H](Cc1ccccc1)C(=O)N[C@H]1c2ccccc2C[C@H]1O.O=S(=O)(O)O | 103 | 122 | 111 | 108 | 117 | 105 | 106 | 127 | 122 | 130 | 90.9 | 112 | 112 | 128 | 128 | 120 | 119 | 132 | 136 | 133 | 130 | 107 | 99.5 | 117 | 123 | 116 | 120 | 119 | 125 | 155 | 145 | 136 | 98 |
| COC(=O)[C@@H](N)CCCNC(=N)N[N+](=O)[O-] | 92.9 | 97.2 | 105 | 88 | 103 | 118 | 99.1 | 96.7 | 104 | 93.9 | 103 | 90 | 85.6 | 96.3 | 88.9 | 86.9 | 86.3 | 92.4 | 88.1 | 92.6 | 93.3 | 102 | 76.9 | 96.3 | 93.8 | 95.7 | 97.4 | 103 | 97.9 | 93.4 | 94.2 | 101 | 105 |
| CO[C@@H]1C(N(C)C(=O)c2ccccc2)C[C@H]2O[C@]1(C)n1c3ccccc3c3c4c(c5c6ccccc6n2c5c31)C(=O)NC4=O (some centres not stated) | 82.2 | 105 | 90.2 | 106 | 98.1 | 104 | 98.3 | 101 | 58.4 | 40.4 | 10.2 | 76.8 | 90.2 | 83.1 | 91 | 88.4 | 104 | 87 | 89.3 | 53.5 | 47.7 | 8.01 | 71.5 | 78.8 | 78 | 91.7 | 85.1 | 85.4 | 75.3 | 90.6 | 42.7 | 49.1 | 8.58 |
